# Data reported in patent US20230041563A1, “N-(1,3,4-OXADIAZOL-2-YL)ARYLCARBOXAMIDES OR SALTS THEREOF, PREPARATION METHODS, HERBICIDAL COMPOSITIONS AND USES THEREOF” (priority 2018, published 2023).
# Key:
# Test in all cases: Weeding effect in post-emergence stage (greenhouse pot spray)
# Type in all cases: in vivo
# Digitaria sanguinalis = system: Digitaria sanguinalis
# Description: (§1) The activity level criteria for plant damage (i.e., growth control rate) are as follows:
# (§2) The above growth control rates are fresh weight control rates.
# (§3) Experiment on weeding effect in post-emergence stage: monocotyledonous and dicotyledonous weed seeds (Descurainia sophia, Capsella bursa-pastoris, Abutilon theophrasti, Galium aparine, Stellaria media, Lithospermum arvense, rorippa indica, Alopecurus aequalis, Beckmannia syzigachne, Sclerochloa dura, Phleum paniculatum, Bromus japonicus, Aegilops tauschii, Phalaris arundinacea, Amaranthus retroflexus, Chenopodiaceae, Commelina communis, Sonchus arvensis, convolvulus arvensis, Cirsium setosum, Solanum nigrum, Acalypha australis, Digitaria sanguinalis, Echinochloa crusgalli, Setaria viridis, Setaria glauca, Leptochloa chinensis, Monochoria vaginalis, Sagittaria trifolia, Scirpus juncoides, Cyperus rotundus, Cyperus iria, Cyperus difformis, Fimbristylis, Portulaca oleracea, Xanthium sibiricum, Pharbitis nil) and major crop seeds (wheat, corn, rice, soybean, cotton, oilseed rape, millet, sorghum, potato, sesame, ricinus) were placed in plastic pots filled with soil, then covered with 0.5-2 cm of soil, allowed to grow in a good greenhouse environment. After 2 weeks of sowing, the test plants were treated in the 2 to 3 leaf stage. The tested compounds of the present invention were respectively dissolved in acetone, then added with Tween 80 and 1.5 liter/ha of emulsifiable concentrate of methyl oleate as synergist, diluted with a certain amount of water to obtain a solution with a certain concentration, and sprayed with a spray tower onto the plants. After the application, the plants were cultured for 3 weeks in the greenhouse, and then the experimental results of the weeding were counted. […]
# Echinochloa crusgalli = system: Echinochloa crusgalli
# Description: as §1, §2, §3
# Amaranthus retroflexus = details: Table 2, dose 500 g a.i./ha
# Description: as §1, §2
# Experiment on weeding effect in post-emergence stage: monocotyledonous and dicotyledonous weed seeds (Descurainia sophia, Capsella bursa-pastoris, Abutilon theophrasti, Galium aparine, Stellaria media, Lithospermum arvense, rorippa indica, Alopecurus aequalis, Beckmannia syzigachne, Sclerochloa dura, Phleum paniculatum, Bromus japonicus, Aegilops tauschii, Phalaris arundinacea, Amaranthus retroflexus, Chenopodiaceae, Commelina communis, Sonchus arvensis, convolvulus arvensis, Cirsium setosum, Solanum nigrum, Acalypha australis, Digitaria sanguinalis, Echinochloa crusgalli, Setaria viridis, Setaria glauca, Leptochloa chinensis, Monochoria vaginalis, Sagittaria trifolia, Scirpus juncoides, Cyperus rotundus, Cyperus iria, Cyperus difformis, Fimbristylis, Portulaca oleracea, Xanthium sibiricum, Pharbitis nil) and major crop seeds (wheat, corn, rice, soybean, cotton, oilseed rape, millet, sorghum, potato, sesame, ricinus) were placed in plastic pots filled with soil, then covered with 0.5-2 cm of soil, allowed to grow in a good greenhouse environment. After 2 weeks of sowing, the test plants were treated in the 2 to 3 leaf stage. The tested compounds of the present invention were respectively dissolved in acetone, then added with Tween 80 and 1.5 liter/ha of emulsifiable concentrate of methyl oleate as synergist, diluted with a certain amount of water to obtain a solution with a certain concentration, and sprayed with a spray tower onto the plants. After the application, the plants were cultured for 3 weeks in the greenhouse, and then the experimental results of the weeding were counted. The doses of the used compounds were 500, 250, 125, 60, 15 g a.i./ha, and the averages were obtained by repeating for three times.
# Setaria viridis = system: Setaria viridis
# Description: as §1, §2, §3
structure (smiles),measurement,setting,value
C=CCSc1c(C(F)(F)F)ccc(C(=O)Nc2nnc(C)o2)c1F [Compound 1-40],Digitaria sanguinalis (activity level),"Digitaria sanguinalis; Table 2, dose 500 g a.i./ha",5 (Level 5: growth control rate is above 85%)
same,Echinochloa crusgah (activity level),"Echinochloa crusgalli; Table 2, dose 500 g a.i./ha",5 (Level 5: growth control rate is above 85%)
same,Amaranthus retroflexus (activity level),Amaranthus retroflexus,5 (Level 5: growth control rate is above 85%)
CC[S@+]([O-])c1c(C(F)(F)F)ccc(C(=O)Nc2nnco2)c1F [3-5 (R-configuration)],Digitaria sanguinahs (activity level),"Digitaria sanguinalis; Table 3, dose 120 g a.i./ha",5 (Level 5: growth control rate is above 85%)
same,Echinochloa crusgali (activity level),"Echinochloa crusgalli; Table 3, dose 120 g a.i./ha",5 (Level 5: growth control rate is above 85%)
same,Setaria viridis (activity level),"Setaria viridis; Table 3, dose 120 g a.i./ha",5 (Level 5: growth control rate is above 85%)
Cc1nnc(NC(=O)c2ccc(C(F)(F)F)c([S@+]([O-])CCCO)c2F)o1 [1-430 (R-configuration)],Digitaria sanguinahs (activity level),"Digitaria sanguinalis; Table 3, dose 500 g a.i./ha",5 (Level 5: growth control rate is above 85%)
same,Echinochloa crusgali (activity level),"Echinochloa crusgalli; Table 3, dose 500 g a.i./ha",5 (Level 5: growth control rate is above 85%)
same,Setaria viridis (activity level),"Setaria viridis; Table 3, dose 500 g a.i./ha",5 (Level 5: growth control rate is above 85%)
Cc1nnc(NC(=O)c2ccc(C(F)(F)F)c([S@+]([O-])CCC(F)(F)C(F)(F)F)c2F)o1 [1-412 (R-configuration)],Digitaria sanguinahs (activity level),"Digitaria sanguinalis; Table 3, dose 500 g a.i./ha",5 (Level 5: growth control rate is above 85%)
same,Echinochloa crusgali (activity level),"Echinochloa crusgalli; Table 3, dose 500 g a.i./ha",5 (Level 5: growth control rate is above 85%)
same,Setaria viridis (activity level),"Setaria viridis; Table 3, dose 500 g a.i./ha",5 (Level 5: growth control rate is above 85%)
O=C(Nc1nnco1)c1ccc(C(F)(F)F)c([S@@+]([O-])CCC(F)(F)F)c1F [3-52 (R-configuration)],Digitaria sanguinahs (activity level),"Digitaria sanguinalis; Table 3, dose 125 g a.i./ha",5 (Level 5: growth control rate is above 85%)
same,Echinochloa crusgali (activity level),"Echinochloa crusgalli; Table 3, dose 125 g a.i./ha",5 (Level 5: growth control rate is above 85%)
same,Setaria viridis (activity level),"Setaria viridis; Table 3, dose 125 g a.i./ha",5 (Level 5: growth control rate is above 85%)
Cc1nnc(NC(=O)c2ccc(C(F)(F)F)c([S@@+]([O-])CCOC(F)F)c2F)o1 [1-523 (R-configuration)],Digitaria sanguinahs (activity level),"Digitaria sanguinalis; Table 3, dose 500 g a.i./ha",5 (Level 5: growth control rate is above 85%)
same,Echinochloa crusgali (activity level),"Echinochloa crusgalli; Table 3, dose 500 g a.i./ha",5 (Level 5: growth control rate is above 85%)
same,Setaria viridis (activity level),"Setaria viridis; Table 3, dose 500 g a.i./ha",5 (Level 5: growth control rate is above 85%)
CCC[S@+]([O-])c1c(C(F)(F)F)ccc(C(=O)Nc2nnc(CC)o2)c1F [2-8 (R-configuration)],Digitaria sanguinahs (activity level),"Digitaria sanguinalis; Table 3, dose 250 g a.i./ha",5 (Level 5: growth control rate is above 85%)
same,Echinochloa crusgali (activity level),"Echinochloa crusgalli; Table 3, dose 250 g a.i./ha",5 (Level 5: growth control rate is above 85%)
same,Setaria viridis (activity level),"Setaria viridis; Table 3, dose 250 g a.i./ha",5 (Level 5: growth control rate is above 85%)
C#CCC[S@@+]([O-])c1c(C(F)(F)F)ccc(C(=O)Nc2nnc(C)o2)c1F [1-401 (R-configuration)],Digitaria sanguinahs (activity level),"Digitaria sanguinalis; Table 3, dose 500 g a.i./ha",5 (Level 5: growth control rate is above 85%)
same,Echinochloa crusgali (activity level),"Echinochloa crusgalli; Table 3, dose 500 g a.i./ha",5 (Level 5: growth control rate is above 85%)
same,Setaria viridis (activity level),"Setaria viridis; Table 3, dose 500 g a.i./ha",5 (Level 5: growth control rate is above 85%)
Cc1nnc(NC(=O)c2ccc(C(F)(F)F)c([S@@+]([O-])CCCC(F)(F)F)c2F)o1 [1-411 (R-configuration)],Digitaria sanguinahs (activity level),"Digitaria sanguinalis; Table 3, dose 250 g a.i./ha",5 (Level 5: growth control rate is above 85%)
same,Echinochloa crusgali (activity level),"Echinochloa crusgalli; Table 3, dose 250 g a.i./ha",5 (Level 5: growth control rate is above 85%)
same,Setaria viridis (activity level),"Setaria viridis; Table 3, dose 250 g a.i./ha",5 (Level 5: growth control rate is above 85%)
COCC[S@+]([O-])c1c(C(F)(F)F)ccc(C(=O)Nc2nnco2)c1F [3-57 (R-configuration)],Digitaria sanguinahs (activity level),"Digitaria sanguinalis; Table 3, dose 125 g a.i./ha",5 (Level 5: growth control rate is above 85%)
same,Echinochloa crusgali (activity level),"Echinochloa crusgalli; Table 3, dose 125 g a.i./ha",5 (Level 5: growth control rate is above 85%)
same,Setaria viridis (activity level),"Setaria viridis; Table 3, dose 125 g a.i./ha",5 (Level 5: growth control rate is above 85%)
CC(C)=NOCC[S@@+]([O-])c1c(C(F)(F)F)ccc(C(=O)Nc2nnc(C)o2)c1F [1-525 (R-configuration)],Digitaria sanguinahs (activity level),"Digitaria sanguinalis; Table 3, dose 500 g a.i./ha",5 (Level 5: growth control rate is above 85%)
same,Echinochloa crusgali (activity level),"Echinochloa crusgalli; Table 3, dose 500 g a.i./ha",5 (Level 5: growth control rate is above 85%)
same,Setaria viridis (activity level),"Setaria viridis; Table 3, dose 500 g a.i./ha",5 (Level 5: growth control rate is above 85%)
